Assay results from ChEMBL document CHEMBL4616727, “Characterization of Conformationally Constrained Benzanilide Scaffolds for Potent and Selective HDAC8 Targeting” (J Med Chem, 2020).

Legend:
[1] = Half life in CD1 mouse at 100 mg/kg, ip measured after 5 mins to 12 hrs by LC-MS/MS analysis; type: ADME, organism-based; conditions: in vivo
[2] = Cmax in CD1 mouse at 100 mg/kg, ip measured after 5 mins to 12 hrs by LC-MS/MS analysis; type: ADME, organism-based; set-up: dose 100 mg/kg, route intraperitoneal; conditions: in vivo
[3] = AUClast in CD1 mouse at 100 mg/kg, ip measured after 5 mins to 12 hrs by LC-MS/MS analysis; type: ADME, organism-based; set-up: time upper 12 hr, time lower 0.083 hr, dose 100 mg/kg, route intraperitoneal; conditions: in vivo
[4] = MRT in CD1 mouse at 100 mg/kg, ip measured after 5 mins to 12 hrs by LC-MS/MS analysis; type: ADME, organism-based; conditions: in vivo
[5] = Effective permeability at pH 7.4 by PAMPA method; type: ADME
[6] = Effective permeability assessed as drug recovery at pH 7.4 by PAMPA method; type: ADME; conditions: read-out: Drug recovery
BE(2)-C = experiment: Inhibition of colony formation in human BE(2)-C cells
Histone deacetylase 4 = Histone deacetylase 4 (Homo sapiens, UniProt P56524); experiment: Inhibition of C-terminal GST-tagged human HDAC4 (101 to 1084 resides) expressed in baculovirus expression system using FAM-RHKK(TF-Ac)-NH2 substrate incubated for […] by EMSA method
Histone deacetylase 5 = Histone deacetylase 5 (Homo sapiens, UniProt Q9UQL6); experiment: Inhibition of N-terminal GST-tagged full length human HDAC5 expressed in baculovirus expression system using FAM-RHKK(TF-Ac)-NH2 substrate incubated for 2 hrs by EMSA method
Histone deacetylase 7 = target: T1, Histone deacetylase 7 (Homo sapiens, UniProt Q8WUI4); experiment: Inhibition of N-terminal GST-tagged human HDAC7 (518 to end residues) expressed in baculovirus expression system using FAM-RHKK(TF-Ac)-NH2 substrate incubated for 3 hrs by EMSA method
T1 sequence (Q8WUI4 whole entry): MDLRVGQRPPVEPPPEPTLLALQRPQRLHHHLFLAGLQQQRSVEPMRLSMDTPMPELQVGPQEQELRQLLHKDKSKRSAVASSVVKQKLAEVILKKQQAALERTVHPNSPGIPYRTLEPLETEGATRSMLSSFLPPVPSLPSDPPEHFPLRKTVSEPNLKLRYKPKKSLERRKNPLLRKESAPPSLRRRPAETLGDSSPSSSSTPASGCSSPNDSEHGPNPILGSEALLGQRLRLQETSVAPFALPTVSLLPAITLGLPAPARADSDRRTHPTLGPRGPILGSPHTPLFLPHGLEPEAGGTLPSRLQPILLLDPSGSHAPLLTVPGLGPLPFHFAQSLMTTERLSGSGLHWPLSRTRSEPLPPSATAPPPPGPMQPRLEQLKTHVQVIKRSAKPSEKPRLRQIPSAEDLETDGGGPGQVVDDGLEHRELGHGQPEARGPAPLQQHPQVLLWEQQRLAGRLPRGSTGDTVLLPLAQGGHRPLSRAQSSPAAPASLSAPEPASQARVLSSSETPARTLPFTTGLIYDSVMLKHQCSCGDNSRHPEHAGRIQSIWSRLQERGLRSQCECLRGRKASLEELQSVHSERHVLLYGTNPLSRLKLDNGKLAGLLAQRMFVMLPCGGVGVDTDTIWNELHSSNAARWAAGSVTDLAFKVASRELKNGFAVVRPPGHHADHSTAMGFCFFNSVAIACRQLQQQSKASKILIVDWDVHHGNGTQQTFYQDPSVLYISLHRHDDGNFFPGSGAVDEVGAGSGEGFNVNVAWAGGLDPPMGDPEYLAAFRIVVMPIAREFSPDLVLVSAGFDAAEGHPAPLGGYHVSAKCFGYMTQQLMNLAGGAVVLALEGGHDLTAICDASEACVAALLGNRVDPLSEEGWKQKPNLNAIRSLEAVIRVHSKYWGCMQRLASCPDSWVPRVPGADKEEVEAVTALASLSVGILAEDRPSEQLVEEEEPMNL

[7] = target: T2, Polyamine deacetylase HDAC10 (Homo sapiens, UniProt Q969S8); experiment: Inhibition of N-terminal His-tagged full length human HDAC10 expressed in baculovirus expression system using FAM-TSRHK(Ac)KL-NH2 substrate incubated for 17 hrs by EMSA method
T2 sequence (Q969S8 whole entry): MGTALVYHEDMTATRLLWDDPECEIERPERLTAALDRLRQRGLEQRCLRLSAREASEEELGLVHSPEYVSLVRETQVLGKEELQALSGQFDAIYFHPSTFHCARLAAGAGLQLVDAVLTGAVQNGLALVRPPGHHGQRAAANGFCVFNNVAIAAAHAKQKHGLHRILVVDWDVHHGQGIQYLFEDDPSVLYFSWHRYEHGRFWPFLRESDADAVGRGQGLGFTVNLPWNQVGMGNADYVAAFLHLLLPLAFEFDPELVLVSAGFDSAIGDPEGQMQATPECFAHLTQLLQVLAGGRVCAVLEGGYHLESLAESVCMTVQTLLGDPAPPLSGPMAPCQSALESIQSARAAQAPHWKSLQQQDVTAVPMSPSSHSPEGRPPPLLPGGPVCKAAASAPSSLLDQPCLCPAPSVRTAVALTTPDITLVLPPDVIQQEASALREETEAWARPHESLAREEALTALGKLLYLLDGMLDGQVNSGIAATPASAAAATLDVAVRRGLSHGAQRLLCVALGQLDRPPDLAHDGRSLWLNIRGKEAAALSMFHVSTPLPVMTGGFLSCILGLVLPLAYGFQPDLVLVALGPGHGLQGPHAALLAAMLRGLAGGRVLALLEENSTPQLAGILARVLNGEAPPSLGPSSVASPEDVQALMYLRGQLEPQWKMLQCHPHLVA

Histone deacetylase 9 = Histone deacetylase 9 (Homo sapiens, UniProt Q9UKV0); experiment: Inhibition of C-terminal His-tagged human HDAC9 (604 to 1066residues) expressed in baculovirus expression system using […] substrate incubated for 3 hrs by EMSA method
Histone deacetylase 9, sequence (Q9UKV0 whole entry): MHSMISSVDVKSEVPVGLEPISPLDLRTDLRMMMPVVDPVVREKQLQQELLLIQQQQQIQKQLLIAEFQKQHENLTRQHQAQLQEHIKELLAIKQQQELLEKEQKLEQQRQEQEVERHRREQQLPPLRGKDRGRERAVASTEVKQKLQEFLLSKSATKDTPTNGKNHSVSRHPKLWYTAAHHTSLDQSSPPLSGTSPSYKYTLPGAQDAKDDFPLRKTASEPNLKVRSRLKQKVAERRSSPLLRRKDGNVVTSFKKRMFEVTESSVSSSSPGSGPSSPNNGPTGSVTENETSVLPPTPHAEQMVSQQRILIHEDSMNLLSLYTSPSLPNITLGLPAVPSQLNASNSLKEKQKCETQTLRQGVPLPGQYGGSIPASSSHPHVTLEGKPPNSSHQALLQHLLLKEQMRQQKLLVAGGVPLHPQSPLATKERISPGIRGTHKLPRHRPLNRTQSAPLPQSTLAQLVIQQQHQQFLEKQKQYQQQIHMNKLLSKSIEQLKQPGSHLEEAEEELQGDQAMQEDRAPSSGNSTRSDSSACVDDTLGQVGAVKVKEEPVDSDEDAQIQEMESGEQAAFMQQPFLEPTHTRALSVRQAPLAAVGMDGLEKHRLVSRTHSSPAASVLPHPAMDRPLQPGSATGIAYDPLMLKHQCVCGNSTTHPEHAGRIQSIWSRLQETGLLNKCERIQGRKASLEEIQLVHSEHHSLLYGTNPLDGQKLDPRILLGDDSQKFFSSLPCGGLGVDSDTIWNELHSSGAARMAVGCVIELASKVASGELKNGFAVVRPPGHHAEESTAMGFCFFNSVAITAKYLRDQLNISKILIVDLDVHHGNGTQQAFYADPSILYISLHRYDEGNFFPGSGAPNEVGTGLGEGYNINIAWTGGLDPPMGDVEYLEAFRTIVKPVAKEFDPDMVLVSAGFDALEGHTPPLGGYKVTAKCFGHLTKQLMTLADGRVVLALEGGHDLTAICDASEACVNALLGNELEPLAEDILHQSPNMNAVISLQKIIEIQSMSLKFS

Histone deacetylase 5, sequence (Q9UQL6 whole entry): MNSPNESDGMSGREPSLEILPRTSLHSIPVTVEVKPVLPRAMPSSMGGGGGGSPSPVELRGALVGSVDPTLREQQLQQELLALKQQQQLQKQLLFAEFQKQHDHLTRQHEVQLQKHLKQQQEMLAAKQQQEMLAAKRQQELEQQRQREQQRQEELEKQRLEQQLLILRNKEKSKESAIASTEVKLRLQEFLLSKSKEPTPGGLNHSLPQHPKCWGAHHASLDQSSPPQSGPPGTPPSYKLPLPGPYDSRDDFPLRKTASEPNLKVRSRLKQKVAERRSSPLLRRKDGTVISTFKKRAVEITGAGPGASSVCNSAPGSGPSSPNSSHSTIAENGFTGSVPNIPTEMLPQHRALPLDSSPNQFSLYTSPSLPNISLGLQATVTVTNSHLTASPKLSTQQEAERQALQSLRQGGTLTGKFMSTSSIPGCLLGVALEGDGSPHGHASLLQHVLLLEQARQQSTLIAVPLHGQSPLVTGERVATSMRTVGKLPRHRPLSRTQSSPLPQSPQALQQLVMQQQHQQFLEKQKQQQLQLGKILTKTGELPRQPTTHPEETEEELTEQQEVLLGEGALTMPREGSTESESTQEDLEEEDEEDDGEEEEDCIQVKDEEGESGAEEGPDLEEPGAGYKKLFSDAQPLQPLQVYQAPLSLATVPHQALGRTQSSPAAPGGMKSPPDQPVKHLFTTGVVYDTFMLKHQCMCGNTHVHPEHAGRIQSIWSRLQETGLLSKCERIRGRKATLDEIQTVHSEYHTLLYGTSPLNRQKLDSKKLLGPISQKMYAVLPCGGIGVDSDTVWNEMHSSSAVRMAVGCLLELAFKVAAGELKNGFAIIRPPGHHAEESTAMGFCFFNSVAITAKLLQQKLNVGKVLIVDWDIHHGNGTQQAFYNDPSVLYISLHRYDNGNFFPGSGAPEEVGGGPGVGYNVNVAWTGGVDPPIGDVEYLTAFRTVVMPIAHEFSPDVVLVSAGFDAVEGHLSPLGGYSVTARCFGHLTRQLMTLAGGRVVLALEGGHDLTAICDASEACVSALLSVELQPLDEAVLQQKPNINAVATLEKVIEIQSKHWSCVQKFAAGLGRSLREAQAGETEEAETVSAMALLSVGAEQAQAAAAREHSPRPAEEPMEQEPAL
Histone deacetylase 4, sequence (P56524 whole entry): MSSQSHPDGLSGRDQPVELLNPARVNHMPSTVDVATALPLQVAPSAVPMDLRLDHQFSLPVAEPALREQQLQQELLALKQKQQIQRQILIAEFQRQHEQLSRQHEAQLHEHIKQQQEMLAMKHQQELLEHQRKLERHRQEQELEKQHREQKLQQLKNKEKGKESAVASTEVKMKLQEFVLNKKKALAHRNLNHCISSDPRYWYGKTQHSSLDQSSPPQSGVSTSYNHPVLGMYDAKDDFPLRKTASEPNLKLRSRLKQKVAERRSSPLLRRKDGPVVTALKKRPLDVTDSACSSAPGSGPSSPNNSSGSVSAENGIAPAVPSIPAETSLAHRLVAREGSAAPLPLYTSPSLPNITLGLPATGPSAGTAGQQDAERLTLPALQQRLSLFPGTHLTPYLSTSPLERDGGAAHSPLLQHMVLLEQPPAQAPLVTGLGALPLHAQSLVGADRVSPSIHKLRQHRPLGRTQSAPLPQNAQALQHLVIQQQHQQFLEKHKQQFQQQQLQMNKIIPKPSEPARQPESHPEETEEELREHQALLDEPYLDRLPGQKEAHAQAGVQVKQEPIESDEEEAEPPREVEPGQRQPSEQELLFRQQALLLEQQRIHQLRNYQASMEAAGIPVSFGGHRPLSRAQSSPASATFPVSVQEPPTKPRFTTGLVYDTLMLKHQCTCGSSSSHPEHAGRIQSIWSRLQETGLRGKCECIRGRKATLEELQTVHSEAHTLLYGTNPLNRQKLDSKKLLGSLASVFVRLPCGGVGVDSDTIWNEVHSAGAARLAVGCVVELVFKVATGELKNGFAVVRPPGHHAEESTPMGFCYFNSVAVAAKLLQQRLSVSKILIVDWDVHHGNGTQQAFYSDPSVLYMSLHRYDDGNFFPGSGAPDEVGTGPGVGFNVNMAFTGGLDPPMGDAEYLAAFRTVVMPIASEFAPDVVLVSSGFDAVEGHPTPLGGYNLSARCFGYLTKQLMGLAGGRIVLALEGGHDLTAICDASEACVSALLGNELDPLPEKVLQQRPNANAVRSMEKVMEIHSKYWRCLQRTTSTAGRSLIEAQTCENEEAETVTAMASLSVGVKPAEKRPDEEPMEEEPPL

COc1ccc(Cn2ccc3ccc(C(=O)NO)cc32)cc1
half-life [1]: 3.3 h
Cmax [2]: 57.6 µM
AUC(0-t) [3]: 6950 ng·h/mL
MRT [4]: 0.45 h

CC(C)(C)c1cccc(C(=O)N(CC2CC2)c2ccc(C(=O)NO)cc2)c1
log(permeability) [5]: -5.7
recovery [6]: 102%
IC50 (BE(2)-C): 2.1 µM
MRT [4]: 2.77 h

CC(C)N(C(=O)c1cc(C(F)(F)F)cc(C(F)(F)F)c1)c1ccc(C(=O)NO)cc1
IC50 (Histone deacetylase 4): > 10 µM
IC50 (Histone deacetylase 5): > 10 µM
IC50 (Histone deacetylase 7): > 10 µM
IC50 [7]: > 10 µM
IC50 (Histone deacetylase 9): > 10 µM
log(permeability) [5]: -5.42
recovery [6]: 95.4%

CC(C)N(C(=O)c1cccc(OC(F)(F)F)c1)c1ccc(C(=O)NO)cc1
log(permeability) [5]: -5.8
recovery [6]: 102%
MRT [4]: 3 h
